Measurements as given in patent publication US20180280480A1, “COMPOSITIONS AND PEPTIDES HAVING DUAL GLP-1R AND GLP-2R AGONIST ACTIVITY” (priority 2014, published 2018).
Marks after values point to notes of the source that are not given here.

Columns and labels:
Type in all cases: in vivo
[1] = test system: Diet Induced Obese (DIO) Sprague-Dawley Rats; assay: Small and large intestinal volume (stereology) in DIO Sprague-Dawley rats
Method: (§1) Thirty (30) male Sprague-Dawley rats (7 weeks of age) were purchased from Taconic (Denmark) and transferred to the Gubra animal unit. During the acclimatization period, the rats were housed two per cage under a 12:12 light dark cycle (lights on from 04.00-16.00 h) at controlled temperature conditions (22±1° C.; 50±10% relative humidity). Throughout the study the rats had ad libitum access to a two choice diet—regular Altromin 1324 rodent chow (Brogaarden, Denmark) and a paste made from Chocolate spread (Nutella, Ferrero Italy), peanut butter and powdered regular Altromin 1324 rodent chow (Brogaarden, Denmark). The animals were kept on the diet for 65 weeks before experimentation. Animals were switched to single housing during the entire study period (day −6 to 25).
The animals were randomized into three study groups (n=10 per group) based on body weight recorded on day −1 to participate in one of the following groups: Group 1: Vehicle, SC, BID. Group 2: SEQ ID NO 6, 82 nmol/kg (day 2-7), 164 nmol/kg (day 8-14) and 328 nmol/kg (day 15-25), SC, BID. […] Body weight was measured from day −3 to termination on day 25. Total body fat mass was analyzed before study start (day −1) and before termination (study day 25) by non-invasive EchoMRI-900 (EchoMRI, USA). […] Blood glucose was measured from tail vein blood before (t=−120 and 0 min, baseline) and after glucose administration (t=15, 30, 60 and 120 min). Blood samples was collected into 10 μl heparinized glass capillary tubes and immediately suspended in buffer (0.5 ml of glucose/lactate system solution (EKF-diagnostics, Germany) and analyzed for glucose on the test day using a BIOSEN c-Line glucose meter (EKF-diagnostics, Germany) according to manufacturer's instructions. On study day 25, the rats were terminated and the GI tract was removed. Intestines were flushed with saline, weighed and then fixated in 4% PFA for determination of small and large intestinal volume by stereological methods as described by Hansen et al. 2013, Am J Transl Res 5(3): 347-58).

[2] = test system: Diet Induced Obese (DIO) Sprague-Dawley Rats; assay: Body weight and whole body fat mass in DIO Sprague-Dawley rats; settings: for Body weight: mean ± S.E.M.; for Whole body fat mass: EchoMRI
Method: as §1
The animals were randomized into three study groups (n=10 per group) based on body weight recorded on day −1 to participate in one of the following groups: Group 1: Vehicle, SC, BID. Group 2: SEQ ID NO 6, 82 nmol/kg (day 2-7), 164 nmol/kg (day 8-14) and 328 nmol/kg (day 15-25), SC, BID. […] Dosing took place in the morning (between 06.00 and 08.00 h) and prior to lights out in the afternoon (between 13.30 and 14.00 h). Doses were administered subcutaneously with a dose volume 1 ml/kg. All rats were handled prior to experimentation to acclimatize the animals to handling and procedures. Body weight was measured from day −3 to termination on day 25. Total body fat mass was analyzed before study start (day −1) and before termination (study day 25) by non-invasive EchoMRI-900 (EchoMRI, USA). On day 23 of the study, rats were subjected to an oral glucose tolerance test (OGTT). Animals were mildly fasted as all food was removed 4 hours prior to the oral glucose load. Vehicle and compounds were administered subcutaneously (SC) 2 hours prior to the OGTT. At t=0 rats received an oral glucose load (2 g/kg; 4 ml/kg; […], Fresenius Kabi, Sweden). Glucose was given as gavage via a gastrically-placed tube connected to a syringe ensuring accurate dosing. Blood glucose was measured from tail vein blood before (t=−120 and 0 min, baseline) and after glucose administration (t=15, 30, 60 and 120 min). Blood samples was collected into 10 μl heparinized glass capillary tubes and immediately suspended in buffer (0.5 ml of glucose/lactate system solution (EKF-diagnostics, Germany) and analyzed for glucose on the test day using a BIOSEN c-Line glucose meter (EKF-diagnostics, Germany) according to manufacturer's instructions. On study day 25, the rats were terminated and the GI tract was removed. Intestines were flushed with saline, weighed and then fixated in 4% PFA for determination of small and large intestinal volume by stereological methods as described by Hansen et al. 2013, Am J Transl Res 5(3): 347-58).

C57BL/6J mice = assay: Acute food intake in C57BL/6J mice; settings: for Total food intake (g/animal): Day 0: 0-[…] (lights off), mean ± SEM
Method: The C57BL/6J mice arrived 7 days prior to the initiation of the study. During these days, animals were handled daily to accustom them to the experimental paradigm. At Day −1, the mice were randomised according to body weight to participate in one of following drug treatment groups (n=6-8 in each group): Group 1: vehicle. […] Group 3-5: SEQ ID NO 3; 3.0; 1.0; 0.3 mg/kg. Group 6-8: SEQ ID NO 4; 3.0; 1.0; 0.3 mg/kg. Group 9-11: SEQ ID NO 5; 3.0; 1.0; 0.3 mg/kg. Group 12-14: SEQ ID NO 6; 3.0; 1.0; 0.3 mg/kg. Group 15-17: SEQ ID NO 7; 3.0; 1.0; 0.3 mg/kg. Three days prior to initiation of dosing, all animals were handled daily and accustomed to the experimental conditions by subcutaneous mock injections (i.e. nipping the skin of the back). Baseline food intake was monitored four days prior to the study. Mice were randomized according to body weight on Day −1. Animals were subjected to two separate injections. First acute dose was administered prior to lights out at Day 0 and food intake was monitored 24 hours post dosing. On Day 3, mice were re-randomised into new treatment groups and dosed prior to lights out. Food intake was monitored 24 hours post dosing. Body weight was measured daily from Day −5 and throughout the study. The study was terminated on Day 5. […] Dosing took place prior to lights out in the afternoon (between 13.30 and 14.00). Doses were administered subcutaneously (dose volume 5 ml/kg). Food intake data was collected using the HM-2 system, an online computerized feeding system using digital weighing cells. Food intake and body weight were measured from Day −7 and throughout the study. […]

[3] = test system: Diet Induced Obese (DIO) Sprague-Dawley Rats; assay: Oral glucose tolerance test in DIO Sprague-Dawley rats
[4] = Day 25, 328 nmol/kg, mean ± S.E.M.
[5] = Day 25, 328 nmol/kg (escalated 82, 164, 328 nmol/kg SC BID)

## R^1-HGDGSFTSELSTYLDALAARDFIAWLIQTKITDR^2 [SEQ ID NO 6]
[1]; [4]
  Large intestine volume: 2.64 ± 0.17 cm^3
  Small intestine volume: 8.50 ± 0.62*** cm^3
[1]; treatment for 25 days, stereology
  effect on small intestine volume: striking increase in small intestine volume
[2]; Day 0 (baseline), 328 nmol/kg group (escalated 82, 164, 328 nmol/kg SC BID)
  Body weight: 962.7 ± 27.8 g
[2]; [5]
  Whole body fat mass: 292.2 ± 25.4 g
  Body weight: 803.9 ± 35.5 g
[2]; Day −1 (baseline), 328 nmol/kg group (escalated 82, 164, 328 nmol/kg SC BID)
  Whole body fat mass: 400.3 ± 18.3 g
C57BL/6J mice; single SC dose 0.3 mg/kg
  Total food intake (g/animal): 0.33 ± 0.17 g/animal
C57BL/6J mice; single SC dose 1 mg/kg
  Total food intake (g/animal): 0.13 ± 0.08 g/animal
C57BL/6J mice; single SC dose 3 mg/kg
  Total food intake (g/animal): 0.06 ± 0.03 g/animal
C57BL/6J mice; among SEQ ID NO 3-7, Table 4
  ranking as inhibitor of food intake after […]: most effective inhibitor of food intake
C57BL/6J mice; single dose 0.3-3 mg/kg
  food intake after […] compared to vehicle: significantly reduced food intake
[3]; DIO rats, Table 15
  effect on glucose tolerance: improved glucose tolerance
[3]; Day 23, 328 nmol/kg, mean ± S.E.M.
  Blood glucose during an oral glucose tolerance test. Area under the curve (AUC) −45 to 240 min.: 1731 ± 77.0 mmol·min/L
